{"source": "patent USRE44543E1", "about": "“Naphthalenic compounds as termite bait toxicants” (priority 2002, dated 2013)", "assay_type_in_all_cases": "in vivo, Coptotermes formosanus", "key": {"[1]": {"test_system": "C. formosanus", "experiment": "ARS bait matrix bioassay with NHA sodium salt, protocol of Example 1 (Example 2)", "conditions": "concentrations greater than 500 and up to 1500 ppm; also effective", "procedure": "(§1) For bait matrices with a final concentrations of NHA sodium salt of either 250 ppm or 500 ppm, the following procedure was used. A total of 25 mg or 50 mg, respectively of the NHA sodium salt was weighed using a Mettler balance. The NHA sodium salt complex was placed into a 50 ml sterile screw cap conical tube (#62.547.004; Sarstedt, Newton, N.C.) and dissolved with 40 ml nutritive solution described in Example 2 of U.S. patent application Ser. No. 09/294,499 filed Apr. 20, 1999, hereby incorporated by reference. Under a laminar flow hood, this product was mixed with 27 ml more of sterile nutritional supplement in a 250 ml sterile glass bottle (prepared as reported by M. G. Rojas and J. A. Morales-Ramos, April 2001, “Bait matrix for delivery of chitin synthesis inhibitors to the Formosan subterranean termite [Isoptera: Rhinotermitidae],” J. Econ. Entomol. 94(2) :506-510) hereby incorporated by reference. The bottle was tightly closed with a screw cap and manually shaken for 2 minutes. The mixture was added to 33 g of sterile cellulose as reported by Rojas and Morales-Ramos (2001) supra. The mixture was manually homogenized using a stainless steel spatula. To encase the bait matrix, tubes made of fibrous casing material (#124B; L.E.M. Products, Inc., Miamitown, Ohio) were cut into 150 mm long portions as reported by Rojas and Morales-Ramos (2001) supra. Fifty grams of bait matrix containing NHA sodium salt was compacted into one end of the inlet tube, and the open end and of the inlet tube was closed with a rubber band. The bait casing was placed inside of the foraging box adjacent to a 10 g piece of pine wood, taking care that it was partially covered with sand. Control bait matrix was prepared minus NHA, and presented in the same way as the treatment matrix to Formosan termites taken from three different colonies, with two boxes per locality totaling six boxes of 2500 termites per treatment. (Rojas and Morales-Ramos [2001] supra). All the experimental boxes were maintained under dark conditions at 27±1° C., and 90±2% relative humidity. Observations were done every 72 hours until all the termites died. The time to reach 100% mortality was measured and recorded. Mean comparisons among treatments and control were conducted.\nN-hydroxynaphthyalimide (NHA) which is commercially available as pure chemical, is dissolved in distilled water using a sterile container; At concentrations of 500 ppm, NHA is effective as bait active ingredient taking a mean time to kill C. formosanus in 2½ months in lab conditions. […]"}, "[2]": {"test_system": "Formosan termites", "experiment": "Foraging box bait matrix bioassay, NHA sodium salt (Example 1)", "procedure": "as §1"}, "[3]": {"test_system": "Formosan subterranean termite", "experiment": "Field test of NHA pressure treated aspen wood in bait stations, New Orleans", "excerpt": "NHA as a wood preservative has been extensively studied (F. Green III, T. A. Kuster, L. Ferge, and T. L. Highley, 1997. Protection of southern pine from fungal decay and termite damage with N,N-Naphthaloylhydroxylamine. Inter. Biodeter. and Biodeg. 39(2-3):103-111; D. M. Crawford and F. Green III, 1999. Protection of southern pine using N,N-Naphthaloylhydroxylamine: Field tests, soft-rot cellars and aquatic bioassay leach testing. Internat. Res. Group on Wood Preserv. Doc. No: IRG/WP 99-30204). Monitoring termite activity in baiting systems is conducted by the use of wooden interceptors constructed from out of aspen, southern yellow pine, white or yellow poplar. In humid environments such as the Southeastern United States, a problem with degradations of such interceptors by fungi frequently occurs. We have noticed that low concentrations of NHA from 200 to 1000 ppm is acceptable to retard fungal growth without presenting any deleterious effect in the termites when incorporated into wooden materials. For bait efficacy, when the chemical is impregnated on pieces of wood the concentration that is retained varies as well as the efficacy. […]"}}, "data": [{"smiles": "O=C1c2cccc3cccc(c23)C(=O)N1O", "note": "[NHA, N-hydroxynaphthalimide]", "values": [{"measurement": "mean killing times versus 500 ppm", "setting": "[1]", "result": "not significantly different"}, {"measurement": "acceptability of the bait", "setting": "[2]; NHA >500 ppm", "result": "reduced"}, {"measurement": "time some termite colonies required to start feeding on the bait", "setting": "[2]; NHA >500 ppm", "result": "more than 8 hours"}, {"measurement": "time to mortality of a 2,500-worker colony", "setting": "[2]; depending on the health and age of the colony", "result": "about 3 weeks"}, {"measurement": "NHA concentration at which consumption is almost non existent", "setting": "[2]; in vivo", "result": "above 20,000 ppm"}, {"measurement": "NHA concentration at which the bait becomes unpalatable", "setting": "[2]; in vivo", "result": "above 10,000 ppm"}, {"measurement": "optimal NHA concentration after field testing", "setting": "[3]", "result": 500, "unit": "ppm"}]}]}
